Assay results: patent US11155514B1, “Pleuromulin acitretin ester with antibacterial activity and a method of preparing the same” (SHAANXI UNIVERSITY OF SCIENCE AND TECHNOLOGY, priority 2020, dated 2021)
Converted amounts (≈) assume the structure as drawn. Where two headings read alike, the source gives them in different places.

Columns and labels:
Assay type in all cases: cell-based
[1] = system: multidrug-resistant Pseudomonas aeruginosa MDR-PA 18-174; test: MIC by microbroth dilution, MDR-PA 18-174; conditions: for MIC: Pseudomonas aeruginosa, read-out: Minimum bacteriostatic concentration (MIC)
Procedure: (§1) The minimal inhibitory concentration (MIC) of the compounds was determined by a microbroth dilution method with gentamicin, cefazolin sodium and ceftriaxone sodium as positive controls.
(§2) The experimental strains included methicillin-resistant Gram-positive bacteria: methicillin-resistant Staphylococcus aureus MRSA 18-222, 18-575; multiple drug-resistant Gram-negative bacteria: […], multidrug-resistant Pseudomonas aeruginosa MDR-PA 18-174,18-202, carbapenem-resistant Acinetobacter baumannii CR-AB 18-183,18-560. All the experimental strains were donated by Huashan Hospital affiliated to Fudan University (Institute of antibiotics, Fudan University) and used after routine identification.
(§3) Preparation of Test Strains:
(§4) Preparation of MHB medium: 20.0 g MHB medium was added to 1 L distilled water, boiled until completely dissolved, packed in conical bottles and sterilized at 121° C. for 15 min.
(§5) The experimental strain was cultured to the logarithmic growth phase: under aseptic condition, the experimental strain was inoculated into 100 mL MHB medium and incubated in a constant temperature and humidity incubator at 37° C. for 20-22 hours.
(§6) Preparation of storage solution: weigh the sample to be tested, dissolve it with 1% DMSO solution, prepare a storage solution with a concentration of 2560 μg/mL, weigh a positive reference substance, dissolve it with aseptic distilled water, and configure a storage solution with a concentration of 2560 μg/mL.
(§7) Preparation of bacterial suspension: under aseptic condition, the experimental strains cultured to logarithmic growth phase were adjusted to 0.5 MCF turbidity standard with MHB medium and diluted according to 1:10, and the bacterial suspension with concentration of 10^6 CFU/mL was prepared for standby.
(§8) Stock solution dilution and inoculation of experimental strains: under aseptic conditions, dilute the stock solution to a solution of 256 μg/mL. Take a sterile 96-well plate, add 100 μL of MHB medium to each well except for the first and second wells; add 100 μL of positive control solution to the first well, and add 100 μL of compound sample solution to the second and third wells; Mix the sample solution in the 3 wells with the medium, and then pipet 100 μL to the 4th well, and then pipet 100 μL to the 5th well after mixing, and then dilute to the 9th well in a series of times, and draw 100 μL from the 9th well and discard, the 10th well is a growth control without drugs; then, add 100 μL of the above-prepared bacterial suspension to each well to make the final bacterial concentration of each well 5×10^5 CFU/mL; so far, the positive control concentration is 128 μg/mL, the concentration of the sample solution is 128, 64, 32, 16, 8, 4, 2, 1 μg/mL.
(§9) Incubation: Cover the 96-well plate inoculated with the experimental strains, and incubate in a constant temperature and humidity box at 37° C. for 20-22 hours.

[2] = system: methicillin-resistant Staphylococcus aureus MRSA 18-575; test: MIC by microbroth dilution, MRSA 18-575
Procedure: as §1, §2, §3, §4, §5, §6, §7, §8, §9
(§10) In FIGS. 1-2, the ten wells represent ten groups, from left to right, positive, 128 μg/mL, 64 μg/mL, 32 μg/mL, 16 μg/mL, 8 μg/mL, 4 μg/mL, 2 μg/mL, 1 μg/mL, Negative.

[3] = system: carbapenem-resistant Acinetobacter baumannii CR-AB 18-183; test: MIC by microbroth dilution, CR-AB 18-183; conditions: for MIC: Acinetobacter baumannii, read-out: Minimum bacteriostatic concentration (MIC)
Procedure: as §1, §2, §3, §4, §5, §6, §7, §8, §9

[4] = system: methicillin-resistant Staphylococcus aureus MRSA 18-222; test: MIC by microbroth dilution, MRSA 18-222; conditions: for MIC: Staphylococcus aureus, read-out: Minimum bacteriostatic concentration (MIC)
Procedure: as §1, §2, §3, §4, §5, §6, §7, §8, §9

[5] = system: carbapenem-resistant Acinetobacter baumannii CR-AB 18-560; test: MIC by microbroth dilution, CR-AB 18-560; conditions: for MIC: Acinetobacter baumannii, read-out: Minimum bacteriostatic concentration (MIC)
Procedure: as §1, §2, §3, §4, §5, §6, §7, §8, §9

[6] = system: vancomycin-resistant enterococci VRE 18-94; test: MIC by microbroth dilution, VRE 18-94; conditions: for MIC: Enterococcus, read-out: Minimum bacteriostatic concentration (MIC)
Procedure: as §1, §2, §3, §4, §5, §6, §7, §8, §9

[7] = system: multidrug-resistant Pseudomonas aeruginosa MDR-PA 18-202; test: MIC by microbroth dilution, MDR-PA 18-202
Procedure: as §1, §2, §3, §4, §5, §6, §7, §8, §9, §10

[8] = system: vancomycin-resistant enterococci VRE 18-80; test: MIC by microbroth dilution, VRE 18-80; conditions: for MIC: Enterococcus, read-out: Minimum bacteriostatic concentration (MIC)
Procedure: as §1, §2, §3, §4, §5, §6, §7, §8, §9

drug-resistant bacteria = test: Antibacterial activity test, summary over all experimental strains; conditions: text summary of FIG. 1-2 and Table 1
Procedure: as §1, §2, §3, §4
The experimental strain was cultured to the logarithmic growth phase: under aseptic condition, the experimental strain was inoculated into 100 mL MHB medium and incubated in a constant temperature and humidity incubator at 37° C. for 20-22 hours. […]

[9] = strain MDR-PA 18-174, 37° C., 20-22 hours
[10] = Staphylococcus aureus, strain MRSA 18-575, 37° C., 20-22 hours, read-out: Minimum bacteriostatic concentration (MIC)
[11] = strain CR-AB 18-183, 37° C., 20-22 hours
[12] = strain MRSA 18-222, 37° C., 20-22 hours
[13] = strain CR-AB 18-560, 37° C., 20-22 hours
[14] = strain VRE 18-94, 37° C., 20-22 hours
[15] = Pseudomonas aeruginosa, strain MDR-PA 18-202, 37° C., 20-22 hours, read-out: Minimum bacteriostatic concentration (MIC)
[16] = strain VRE 18-80, 37° C., 20-22 hours

| Molecule | MIC [1, 9] [µg/mL] | MIC [2, 10] [µg/mL] | MIC [3, 11] [µg/mL] | MIC [4, 12] [µg/mL] | MIC [5, 13] [µg/mL] | MIC [6, 14] [µg/mL] | MIC [7, 15] [µg/mL] | MIC [8, 16] [µg/mL] | inhibitory effect on drug-resistant bacteria (drug-resistant bacteria) | further results |
| --- | --- | --- | --- | --- | --- | --- | --- | --- | --- | --- |
| Cc1nnc(SCC2=C(C(=O)O)N3C(=O)[C@@H](NC(=O)Cn4cnnn4)[C@H]3SC2)s1 [Cefazolin sodium] | 8 | > 128 | > 128 | > 128 | > 128 | > 128 | 128 | 32 |  |  |
| C=C[C@]1(C)C[C@@H](OC(=O)CO)[C@]2(C)[C@H](C)CC[C@]3(CCC(=O)[C@H]32)[C@@H](C)[C@@H]1O [Pleuromulin] | > 128 | > 128 | > 128 | > 128 | > 128 | > 128 | > 128 | > 128 | no inhibitory effect |  |
| C=C[C@]1(C)C[C@@H](OC(=O)COC(=O)/C=C(C)/C=C/C=C(C)/C=C/c2c(C)cc(OC)c(C)c2C)[C@]2(C)CC[C@@H](C)C3(CCC(=O)[C@H]32)[C@@H](C)[C@@H]1O [Pleuromulin acitretinester, (2E,4E,6E,8E)-2-(((4R,5S,6S,8R,9R,9aR,12R)-5-hydroxy-4,6,9,12-tetramethyl-1-oxo-6-vinyldecahydro-3a,9-propanocyclopenta[8]annulen-8-yl)oxy)-2-oxoethyl 9-(4-methoxy-2,3,6-trimethylphenyl)-3,7-dimethylnona-2,4,6,8-tetraenoate] | > 128 | 64 (≈ 93.2 µM) | > 128 | > 128 | > 128 | > 128 | 128 (≈ 186 µM) | > 128 |  | MIC ([2]; multi-drug resistant Staphylococcus aureus MRSA, strain not named, read-out: MIC): 64 µg/mL (≈ 93.2 µM); MIC ([7]; multi-drug resistant Pseudomonas aeruginosa MDR-PA, strain not named, read-out: MIC): 128 µg/mL (≈ 186 µM) |
| Gentamicin |  |  |  |  |  |  |  |  |  | Minimum bacteriostatic concentration (MIC) [1, 9]: 0.0625 µg/mL; Minimum bacteriostatic concentration (MIC) ([2]; strain MRSA 18-575, 37° C., 20-22 hours): 2 µg/mL; Minimum bacteriostatic concentration (MIC) [3, 11]: >128 µg/mL; Minimum bacteriostatic concentration (MIC) [4, 12]: 128 µg/mL; Minimum bacteriostatic concentration (MIC) [5, 13]: >128 µg/mL; Minimum bacteriostatic concentration (MIC) [6, 14]: >128 µg/mL; Minimum bacteriostatic concentration (MIC) ([7]; strain MDR-PA 18-202, 37° C., 20-22 hours): 0.0625 µg/mL; Minimum bacteriostatic concentration (MIC) [8, 16]: 0.0625 µg/mL |
| CO/N=C(\C(=O)N[C@@H]1C(=O)N2C(C(=O)O)=C(CSc3nc(=O)c(=O)[nH]n3C)CS[C@H]12)c1csc(N)n1 [Ceftriaxone sodium] | 128 | > 128 | > 128 | > 128 | > 128 | > 128 | 16 | 8 |  |  |
| COc1cc(C)c(/C=C/C(C)=C/C=C/C(C)=C/C(=O)O)c(C)c1C [Acitretin] |  |  |  |  |  |  |  |  | no inhibitory effect | MIC [1]: > 128 µg/mL; MIC ([2]; Staphylococcus aureus, MRSA, read-out: Minimum bacteriostatic concentration (MIC)): > 128 µg/mL; MIC [3]: > 128 µg/mL; MIC ([4]; MRSA): > 128 µg/mL; MIC [5]: > 128 µg/mL; MIC ([6]; VRE): > 128 µg/mL; MIC ([7]; Pseudomonas aeruginosa, read-out: Minimum bacteriostatic concentration (MIC)): > 128 µg/mL; MIC ([8]; VRE): > 128 µg/mL |
